Source: ChEMBL document CHEMBL4622902, “Discovery of triazolo [1,5-a] pyridine derivatives as novel JAK1/2 inhibitors” (Bioorg Med Chem Lett, 2020)

What was measured:
[1] = target: Tyrosine-protein kinase JAK2 (Homo sapiens, UniProt O60674); assay: Inhibition of JAK2 (unknown origin) in presence of ATP at Km concentration by caliper assay
[2] = target: Tyrosine-protein kinase JAK1 (Homo sapiens, UniProt P23458); assay: Inhibition of JAK1 (unknown origin) in presence of ATP at Km concentration by caliper assay
[3] = target: T1, Tyrosine-protein kinase JAK3 (Homo sapiens, UniProt P52333); assay: Inhibition of JAK3 (unknown origin) in presence of ATP at Km concentration by caliper assay
T1 sequence (P52333 whole entry): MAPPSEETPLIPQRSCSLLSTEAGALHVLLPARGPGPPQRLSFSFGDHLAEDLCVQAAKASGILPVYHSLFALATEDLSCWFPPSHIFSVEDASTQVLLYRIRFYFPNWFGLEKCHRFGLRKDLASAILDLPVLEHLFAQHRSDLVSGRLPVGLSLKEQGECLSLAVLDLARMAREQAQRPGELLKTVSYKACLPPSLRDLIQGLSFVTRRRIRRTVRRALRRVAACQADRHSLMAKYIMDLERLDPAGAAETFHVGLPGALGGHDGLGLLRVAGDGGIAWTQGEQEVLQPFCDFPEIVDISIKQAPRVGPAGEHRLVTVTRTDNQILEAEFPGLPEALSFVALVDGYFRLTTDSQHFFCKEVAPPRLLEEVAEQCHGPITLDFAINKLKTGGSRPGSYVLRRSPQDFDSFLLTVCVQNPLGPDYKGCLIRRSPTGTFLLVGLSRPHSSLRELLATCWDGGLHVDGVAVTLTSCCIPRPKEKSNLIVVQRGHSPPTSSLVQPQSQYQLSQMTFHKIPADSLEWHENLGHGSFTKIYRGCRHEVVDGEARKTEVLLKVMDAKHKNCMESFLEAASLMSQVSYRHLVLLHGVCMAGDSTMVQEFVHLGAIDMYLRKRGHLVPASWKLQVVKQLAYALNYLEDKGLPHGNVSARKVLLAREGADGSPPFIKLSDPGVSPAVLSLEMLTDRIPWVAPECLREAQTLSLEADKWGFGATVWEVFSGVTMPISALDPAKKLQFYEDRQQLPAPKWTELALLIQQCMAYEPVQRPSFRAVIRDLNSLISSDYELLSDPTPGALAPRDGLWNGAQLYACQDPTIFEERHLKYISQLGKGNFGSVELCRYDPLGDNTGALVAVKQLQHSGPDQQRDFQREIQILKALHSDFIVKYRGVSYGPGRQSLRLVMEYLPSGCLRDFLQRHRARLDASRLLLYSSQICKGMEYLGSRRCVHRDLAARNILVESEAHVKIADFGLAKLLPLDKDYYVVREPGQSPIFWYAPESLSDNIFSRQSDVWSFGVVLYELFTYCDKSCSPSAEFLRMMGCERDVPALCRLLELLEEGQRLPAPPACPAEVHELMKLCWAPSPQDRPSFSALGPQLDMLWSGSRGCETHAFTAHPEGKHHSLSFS

Tyrosine-protein kinase JAK1, sequence (P23458 whole entry): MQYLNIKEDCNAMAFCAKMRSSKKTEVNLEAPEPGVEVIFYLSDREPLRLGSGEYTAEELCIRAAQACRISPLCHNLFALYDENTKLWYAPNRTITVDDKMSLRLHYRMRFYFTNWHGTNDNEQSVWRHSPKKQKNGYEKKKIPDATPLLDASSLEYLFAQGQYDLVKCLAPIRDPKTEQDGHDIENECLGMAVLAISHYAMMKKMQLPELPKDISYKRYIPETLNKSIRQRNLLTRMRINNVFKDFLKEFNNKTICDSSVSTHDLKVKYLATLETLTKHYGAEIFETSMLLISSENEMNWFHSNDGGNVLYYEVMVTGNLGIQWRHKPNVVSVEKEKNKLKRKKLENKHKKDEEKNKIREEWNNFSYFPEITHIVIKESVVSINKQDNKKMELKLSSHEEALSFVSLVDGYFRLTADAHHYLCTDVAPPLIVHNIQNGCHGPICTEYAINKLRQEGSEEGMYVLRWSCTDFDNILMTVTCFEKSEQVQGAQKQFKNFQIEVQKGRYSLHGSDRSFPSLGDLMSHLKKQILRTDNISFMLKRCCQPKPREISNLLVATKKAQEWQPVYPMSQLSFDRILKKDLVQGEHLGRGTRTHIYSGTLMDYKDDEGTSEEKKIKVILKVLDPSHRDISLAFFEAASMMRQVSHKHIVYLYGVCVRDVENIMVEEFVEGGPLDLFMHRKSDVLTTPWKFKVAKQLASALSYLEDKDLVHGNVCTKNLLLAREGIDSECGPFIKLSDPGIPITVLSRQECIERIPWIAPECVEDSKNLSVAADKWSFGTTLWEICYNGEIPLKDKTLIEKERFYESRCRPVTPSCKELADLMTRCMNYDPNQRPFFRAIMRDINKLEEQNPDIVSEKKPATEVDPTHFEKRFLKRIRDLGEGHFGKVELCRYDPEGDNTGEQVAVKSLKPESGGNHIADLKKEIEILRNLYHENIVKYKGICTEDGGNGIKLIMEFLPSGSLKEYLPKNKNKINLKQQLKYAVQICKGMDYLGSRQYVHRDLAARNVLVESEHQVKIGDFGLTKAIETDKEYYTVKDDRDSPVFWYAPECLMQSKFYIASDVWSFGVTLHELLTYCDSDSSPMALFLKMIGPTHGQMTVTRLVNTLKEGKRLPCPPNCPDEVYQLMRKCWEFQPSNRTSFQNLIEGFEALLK
Tyrosine-protein kinase JAK2, sequence (O60674 whole entry): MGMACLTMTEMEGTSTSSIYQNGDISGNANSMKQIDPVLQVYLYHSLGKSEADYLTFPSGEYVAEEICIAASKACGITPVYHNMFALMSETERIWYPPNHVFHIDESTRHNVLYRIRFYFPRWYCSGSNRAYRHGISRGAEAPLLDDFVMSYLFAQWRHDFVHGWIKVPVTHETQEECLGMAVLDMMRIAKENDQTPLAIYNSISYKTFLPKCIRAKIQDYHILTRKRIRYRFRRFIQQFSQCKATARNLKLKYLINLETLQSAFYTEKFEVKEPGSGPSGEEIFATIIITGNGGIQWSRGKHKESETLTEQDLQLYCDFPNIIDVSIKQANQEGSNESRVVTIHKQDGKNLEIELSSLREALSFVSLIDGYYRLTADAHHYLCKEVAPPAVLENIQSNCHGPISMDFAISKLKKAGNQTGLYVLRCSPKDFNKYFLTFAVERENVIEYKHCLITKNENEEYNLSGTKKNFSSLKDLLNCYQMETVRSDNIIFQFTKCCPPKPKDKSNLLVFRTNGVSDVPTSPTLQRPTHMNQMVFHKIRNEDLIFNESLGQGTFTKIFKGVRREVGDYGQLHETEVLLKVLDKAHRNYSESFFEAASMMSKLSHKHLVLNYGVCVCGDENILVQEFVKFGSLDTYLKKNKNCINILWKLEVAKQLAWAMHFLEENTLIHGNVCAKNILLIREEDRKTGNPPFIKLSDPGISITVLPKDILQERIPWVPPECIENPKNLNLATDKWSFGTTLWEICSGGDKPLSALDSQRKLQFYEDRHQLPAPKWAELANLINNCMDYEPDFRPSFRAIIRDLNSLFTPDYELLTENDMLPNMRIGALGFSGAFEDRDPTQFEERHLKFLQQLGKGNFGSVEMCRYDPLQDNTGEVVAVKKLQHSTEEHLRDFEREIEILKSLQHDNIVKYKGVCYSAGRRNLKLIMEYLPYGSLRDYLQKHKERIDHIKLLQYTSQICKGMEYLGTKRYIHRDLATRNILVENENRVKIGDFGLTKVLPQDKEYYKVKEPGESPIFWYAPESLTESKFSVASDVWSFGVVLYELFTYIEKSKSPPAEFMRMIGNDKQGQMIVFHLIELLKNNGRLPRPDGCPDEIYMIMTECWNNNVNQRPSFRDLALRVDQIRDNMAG

Structure (SMILES) | IC50 [1] | IC50 [2] | IC50 [3]
N#CCC(=O)N1CC=C(c2cccc3nc(NC(=O)C4CC4)nn23)CC1 | 157 nM |  | 
N#CC1(C(=O)N2CC=C(c3cccc4nc(NC(=O)C5CC5)nn34)CC2)CC1 | 441 nM |  | 
O=C(NCC(F)(F)F)c1ccc(-c2cccc3nc(NC(=O)C4CC4)nn23)cc1 | 214 nM | 230 nM | 1020 nM
O=C(Nc1nc2cccc(C3=CCN(C(=O)C4CC4(F)F)CC3)n2n1)C1CC1 (configuration not stated) | 192 nM |  | 
N#CCNC(=O)c1ccc(-c2cccc3nc(NC(=O)C4CC4)nn23)cc1 | 299 nM |  | 
C=CC(=O)N1CC=C(c2cccc3nc(NC(=O)C4CC4)nn23)CC1 | 424 nM |  | 

Further compounds by falling IC50 [1], results first:

IC50 [1] | IC50 [2] | IC50 [3] | Structure (SMILES)
347 nM | 234 nM | 1740 nM | O=C(Nc1nc2cccc(C3=CCN(C(=O)NCC(F)(F)F)CC3)n2n1)C1CC1
317 nM |  |  | O=C(Nc1nc2cccc(C3=CCN(C(=O)C4(C(F)(F)F)CC4)CC3)n2n1)C1CC1
175 nM |  |  | N#CCNC(=O)N1CC=C(c2cccc3nc(NC(=O)C4CC4)nn23)CC1
139 nM | 124 nM | 941 nM | O=C(Nc1nc2cccc(-c3ccc(C(=O)N4CC(F)(F)C4)cc3)n2n1)C1CC1
55 nM |  |  | C=C(C#N)C(O)c1ccc(-c2cccc3nc(NC(=O)C4CC4)nn23)cc1 (configuration not stated)
